Source: patent publication US20180250207A1, “LIQUID CONCENTRATE FOR PRESERVING COSMETICS” (SCHÜLKE & MAYR GMBH, priority 2015, published 2018)
Where a name gives a salt, the structure may show the parent alone.

System: Staphylococcus aureus, Kocuria rhizophila, Enterobacter gergoviae, Escherichia coli, Klebsiella pneumoniae, Pseudomonas aeruginosa, Pseudomonas fluorescens …
Test: Koko test: preserving effect of preservatives in a cosmetic formulation (PEG-free emulsion for baby wipes), weekly re-inoculation and smears
Format: cell-based, bacteria, yeast, moulds
Details: use concentration of 1.0% by weight in the emulsion
Procedure: The test described below serves to assess the preserving effect of chemical preservatives in cosmetic formulations. With the help of the described method, the aim is to test the efficacy of chemical preservatives with regard to pack preservation for cosmetic formulations. For this purpose, in different experimental batches to the nonpreserved samples, the preservatives to be investigated are added in different concentrations. A continual germ loading is achieved through periodic inoculation of the experimental batches. In parallel to the inoculation, smears of the individual batches are performed in each case directly beforehand. […] To be on the safe side, negative smears are observed for a further two days and assessed again. Assessment of the preserving effect of the individual product concentrations is performed in a semi-quantitative method via the growth of the individual smears. −=growth-free ++=moderate growth +=weak growth +++=strong growth The growth is differentiated according to bacteria, yeasts and moulds (“B”=bacteria, “Y”=yeasts, “M”=moulds, “Sp”=spore-forming bacteria, “/”=the test was terminated). […] The sample is well preserved if, under the aforementioned laboratory conditions, it withstands a period of six weeks without microbial attack of the sample batches, i.e. microbial growth cannot be detected even after the sixth inoculation. […]

Compound: CCCCCCCCN=c1ccn(CCCCCCCCCCn2ccc(=NCCCCCCCC)cc2)cc1 [Octenidine dihydrochloride]
- Preserving effect, overall assessment in words: does not have an antimicrobial effect on its own
